Earlier results, collected in patent US20080260818A1, “Controlled Absorption of Statins in the Intestine” (DEXCEL PHARMA TECHNOLOGIES LTD., priority 2005, published 2008).

What was measured:
[1] = target: T1, HMG-CoA reductase (Homo sapiens, UniProt P04035); conditions: considering the beta-hydroxy acid form as the drug
T1 sequence (P04035 1-888): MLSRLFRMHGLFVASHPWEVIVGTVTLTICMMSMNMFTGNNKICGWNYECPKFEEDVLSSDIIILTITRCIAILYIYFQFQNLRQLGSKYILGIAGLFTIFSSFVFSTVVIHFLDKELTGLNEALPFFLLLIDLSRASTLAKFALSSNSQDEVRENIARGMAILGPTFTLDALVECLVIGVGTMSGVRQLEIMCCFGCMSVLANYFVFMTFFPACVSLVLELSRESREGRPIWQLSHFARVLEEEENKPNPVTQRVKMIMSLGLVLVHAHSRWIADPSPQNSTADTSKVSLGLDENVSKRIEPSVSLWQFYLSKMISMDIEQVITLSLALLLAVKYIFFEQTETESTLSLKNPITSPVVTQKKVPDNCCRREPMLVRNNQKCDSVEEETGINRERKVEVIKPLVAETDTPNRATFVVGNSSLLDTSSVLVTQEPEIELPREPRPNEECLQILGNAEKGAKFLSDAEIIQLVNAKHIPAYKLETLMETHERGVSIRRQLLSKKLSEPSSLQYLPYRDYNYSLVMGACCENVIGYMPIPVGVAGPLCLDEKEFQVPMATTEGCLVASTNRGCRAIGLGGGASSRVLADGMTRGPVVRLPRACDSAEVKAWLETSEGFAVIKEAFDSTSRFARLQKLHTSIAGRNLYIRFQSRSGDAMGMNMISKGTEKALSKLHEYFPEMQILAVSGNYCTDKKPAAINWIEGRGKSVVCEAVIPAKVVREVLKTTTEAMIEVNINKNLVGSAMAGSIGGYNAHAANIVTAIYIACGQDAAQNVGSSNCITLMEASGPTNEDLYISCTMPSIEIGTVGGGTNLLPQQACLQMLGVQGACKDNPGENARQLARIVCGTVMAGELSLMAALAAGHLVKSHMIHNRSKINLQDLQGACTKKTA

[2] = test system: plasma proteins, primarily albumin; conditions: Simvastatin and its active acid forms

| Compound | HMG-CoA reductase activity retained [1] | bound to plasma proteins, primarily to albumin [2] |
| --- | --- | --- |
| CCC(C)(C)C(=O)OC1CC(CO)C=C2C=CC(C)C(CCC3CC(O)CC(=O)O3)C21 (stereo not drawn) [6-beta-hydroxymethyl] | approximately 40% |  |
| CCC(C)(C)C(=O)O[C@H]1C[C@@H](C)C=C2C=C[C@H](C)[C@H](CC[C@@H]3C[C@@H](O)CC(=O)O3)[C@H]21 [simvastatin] |  | more than 95% |
| CCC(C)(C)C(=O)OC1CC(C)(O)C=C2C=CC(C)C(CCC3CC(O)CC(=O)O3)C21 (stereo not drawn) [6-beta-hydroxy simvastatin] | ~50% |  |
